Common to all, as to experiment: NCI-60 cell line screen, 48 h
Test [1] concerns CAKI-1.
Test [2] has as its system NCI-H226.
Test [3] relates to SF-268.
Test [4] deals with MOLT-4.
The test system of test [5] is K562.
In test [6] the test system is COLO 205.
For test [7], the system named is RXF 393.
In test [8] the test system is 786-0.
Test [9] has as its system MDA-MB-435.
In test [10] the test system is SN12C.
The subject of test [11] is DU-145.
Test [12] has as its system BT-549.
For test [13], the system named is TK-10.
The subject of test [14] is HT-29.
For test [15], the system named is SNB-19.
The test system of test [16] is UO-31.
The subject of test [17] is M14.
Test [18] has as its system SK-OV-3.
Test [19] has as its system SK-MEL-2.
Test [20] relates to SNB-75.

We go through nine compounds from ChEMBL document CHEMBL1201862, “PubChem BioAssay data set” (2004).

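Each compound was tested at five concentrations against cells in 96-well plates for 48 hours. Here, GI50 denotes the concentration required for 50% inhibition of growth.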 Activity calls are given as the source filed them. Cut-off read from the data, not from the text of the source: active = GI50 up to about 1.1 µM and inactive = higher. Numbered stars: 1 amine (or outer) side, 2 acyl side, 3 side chain; on linkers, the order of the positions; unused ones are H or OH. Bridge positions count the residues as written; N and C are the ends. Square brackets hold non-standard residues; d marks the D form. Peptide text beside a SMILES is read from it. X58 = COc1c(N[*:1])cccc1C(=O)O[C@H](C(=O)[C@H](C)C(=O)[*:2])C(C)C; X57 = CC(C)C[C@H](C(=O)[*:2])C(C)C(=O)C1CCCN1[*:1]; NMeY = CN[C@@H](Cc1ccc(O)cc1)C(=O)O; Lac = C[C@H](O)C(=O)O

For `O=C(O)/C=C(/C(=O)O)C12CCN3CC4=CCOC5CC(=O)NC1C5C4CC32` (stereo not given), the GI50 in test [1], in test [2], in test [3], in test [4], in test [5] and in test [6] was > 100 µM (inactive) throughout. In addition, the GI50 in [7], in test [8], in test [9], in test [10], in [11] and in test [12] was > 100 µM (inactive) in each case. For the same compound, the GI50 in test [13], in test [14], in test [15], in test [16], in [17] and in test [18] was > 100 µM (inactive) each time. Further, the GI50 in test [19] and in test [20] was > 100 µM (inactive) in each case.

`COc1ccc(C[C@H]2C(=O)O[C@H](C)[C@H](NC(=O)[C@@H](CC(C)C)C(C)C(=O)C3CCCN3C(=O)[C@H](C)O)C(=O)Nc3cccc(c3OC)C(=O)O[C@@H](C(C)C)C(=O)[C@H](C)C(=O)N[C@@H](CC(C)C)C(=O)N3CCC[C@H]3C(=O)N2C)cc1` (stereo not given in full) (H-[Lac][X57]T[X58]LP[NMeY](Me); ester 3-C): the GI50 is > 12.5 µM (inactive) in test [1]; 7.26 µM (inactive) in test [2]; > 12.5 µM (inactive) in [3]; 1.91 µM (inactive) in test [4]; 0.372 µM (active) in test [5]; 9.29 µM (inactive) in test [6]. The GI50 in [7] is > 12.5 µM (inactive); in test [8] it was > 12.5 µM (inactive); in [9], 4.93 µM (inactive); in test [10] it was > 12.5 µM (inactive); in test [11], > 12.5 µM (inactive); in test [12], > 12.5 µM (inactive). Also, the GI50 is > 12.5 µM (inactive) in test [13]; 2.79 µM (inactive) in test [14]; 11 µM (inactive) in [15]; > 12.5 µM (inactive) in test [16]; 11.4 µM (inactive) in test [17]; > 12.5 µM (inactive) in [18]. Moreover, the GI50 was > 12.5 µM (inactive) in [19] and 2.81 µM (inactive) in test [20].

Turning to `O=c1[nH]nc(-c2ccccc2)n1/N=C\CC/C=N\n1c(-c2ccccc2)n[nH]c1=O`, the GI50 in [1] was 49 µM (inactive); in test [2] it was 24.5 µM (inactive); in test [3], 26.1 µM (inactive); in [4] it was 20.1 µM (inactive); in test [5], 31.1 µM (inactive); in test [6], 55 µM (inactive). Also, the GI50 in [7] was > 67.5 µM (inactive); in test [8], 26.5 µM (inactive); in test [9], 22.7 µM (inactive); in test [10] it was 20.3 µM (inactive); in test [11] it was > 59.2 µM (inactive); in [12], 19.2 µM (inactive). The GI50 was > 100 µM (inactive) in [13]; 19.4 µM (inactive) in [14]; 45.1 µM (inactive) in [15]; > 67.6 µM (inactive) in [16]; 20.6 µM (inactive) in [17]; 28.6 µM (inactive) in test [18]. Further, the values for the GI50 in [19] and in test [20] were 20.2 µM (inactive) and > 69.3 µM (inactive), respectively.

As for `O=C(O)CN1C(=O)CN=C(c2ccccn2)c2cc(Cl)ccc21`, the GI50 in test [1] is > 100 µM (inactive); in [2] it was > 100 µM (inactive); in [3], > 100 µM (inactive); in [4], 1.24 µM (inactive); in [5] it was > 100 µM (inactive); in test [6], > 100 µM (inactive). For the same compound, the GI50 in [7], in [8], in test [9], in test [10], in test [11] and in test [12] was > 100 µM (inactive) each time. Besides, the GI50 in [13], in test [14], in test [15], in test [16], in [17] and in [18] was > 100 µM (inactive) throughout. Also, the GI50 in [19] and in test [20] was > 100 µM (inactive) in each case.

For the compound `Oc1ccc2c3c1OC1c4[nH]ncc4C[C@H]4[C@@H](C2)N(CC2CC2)CC[C@]314` (stereo not given in full), the GI50 in test [1] is > 100 µM (inactive); in [2], > 100 µM (inactive); in [3], > 100 µM (inactive); in test [4], > 100 µM (inactive); in test [5] it was 99.5 µM (inactive); in [6], > 100 µM (inactive). In addition, the GI50 in test [7], in test [8], in test [9], in [10], in test [11] and in test [12] was > 100 µM (inactive) throughout. Further, the GI50 in [13], in test [14], in test [15], in test [16], in test [17] and in [18] was > 100 µM (inactive) in each case. Further, the GI50 was > 100 µM (inactive) in test [19] and 78.5 µM (inactive) in [20].

As for `C=C1C(=O)O[C@@H]2[C@H]1C[C@@H](O)[C@H](C)[C@@](O)(C(=O)/C=C/C)[C@H]2OC(=O)C(C)CC` (stereo not given in full), the GI50 is 1.26 µM (inactive) in [1]; 43.4 µM (inactive) in [2]; 15.4 µM (inactive) in test [3]; 2.44 µM (inactive) in test [4]; 2.28 µM (inactive) in test [5]; 1.75 µM (inactive) in [6]. For the same compound, the GI50 in test [7] is 2.15 µM (inactive); in test [8], 2.61 µM (inactive); in test [9] it was 3.29 µM (inactive); in [10], 2.64 µM (inactive); in test [11], 4.27 µM (inactive); in [12] it was 5.45 µM (inactive). The GI50 in [13] is 3.37 µM (inactive); in [14], 2.24 µM (inactive); in [15] it was > 46.3 µM (inactive); in [16] it was 1.82 µM (inactive); in [17], 3.3 µM (inactive); in test [18] it was 42.2 µM (inactive). The results for the GI50 in test [19] and in test [20] were 22.5 µM (inactive) and 22.6 µM (inactive), respectively.

With `O=C1Nc2ccc(Cl)cc2C(=O)N2CCC[C@@H]12`, the GI50 in test [1], in test [2], in [3], in test [4], in test [5] and in [6] was > 100 µM (inactive) each time. In addition, the GI50 in test [7] is 60.3 µM (inactive); in test [8], > 100 µM (inactive); in [9], > 100 µM (inactive); in [10] it was > 100 µM (inactive); in [11], > 100 µM (inactive); in test [12], > 100 µM (inactive). Also, the GI50 in [13], in test [14], in test [15], in test [16], in [17] and in [18] was > 100 µM (inactive) in each case. Also, the GI50 in test [19] and in [20] was > 100 µM (inactive) in each case.

As for `Oc1nnnc2c1sc1ncccc12`, the GI50 in test [1], in test [2], in test [3], in test [4], in test [5] and in [6] was > 100 µM (inactive) throughout. The GI50 in test [7], in test [8], in test [9], in test [10], in [11] and in [12] was > 100 µM (inactive) throughout. For the same compound, the GI50 was > 100 µM (inactive) in test [13]; > 100 µM (inactive) in test [14]; > 100 µM (inactive) in test [15]; 84.5 µM (inactive) in test [16]; > 100 µM (inactive) in test [17]; 85.1 µM (inactive) in test [18]. In addition, the results for the GI50 in test [19] and in test [20] were > 100 µM (inactive) and 25.1 µM (inactive), respectively.

On to `COc1cc2c(cc1OC)C(=O)/C(=C/c1ccccc1)C2`, for which the GI50 in [1] is > 100 µM (inactive); in test [2], > 81.8 µM (inactive); in test [3], 73.3 µM (inactive); in test [4], 16.3 µM (inactive); in [5], 11.9 µM (inactive); in [6], > 100 µM (inactive). Moreover, the GI50 in test [7] is > 34.8 µM (inactive); in test [8], 90.6 µM (inactive); in test [9], > 87.7 µM (inactive); in test [10], > 100 µM (inactive); in test [11], > 94.2 µM (inactive); in test [12] it was > 100 µM (inactive). Moreover, the GI50 is > 100 µM (inactive) in test [13]; 45.3 µM (inactive) in test [14]; > 100 µM (inactive) in test [15]; > 83.8 µM (inactive) in test [16]; > 62.5 µM (inactive) in test [17]; > 100 µM (inactive) in [18]. Besides, the GI50 is > 100 µM (inactive) in [19] and > 39.4 µM (inactive) in [20].
